According to patent US12655090B2, “Cyclopropylamide compounds against parasites in fish” (Intervet Inc., priority 2021, dated 2026):

How the values were obtained:
[1] = tested on: Copepodids (juvenile sea lice stage of Lepeophtheirus salmonis); experiment: Juvenile sea lice contact assay; conditions: approximately 24 hours continuous exposure in seawater, read-out: Sea lice inhibition (% of dead+damaged copepodids); for inhibition at 0.01 µM: test concentration 10 nM; for inhibition at 0.1 µM: test concentration 100 nM; for inhibition at 10 pM: test concentration 0.01 nM
Description: Copepodids (juvenile sea lice stage of Lepeophtheirus salmonis) were exposed to seawater spiked with declining concentrations of a test compound (dissolved in a DMSO sea-water mixture). Sea lice inhibition (% of dead+damaged copepodids) was assessed after approximately 24 hours of continuous exposure. The vitality of used parasites was confirmed in a negative (solvent) control group.

[2] = tested on: Mobile stages of sea lice (pre-adults, adults of Lepeophtheirus salmonis); experiment: Adult sea lice contact assay; conditions: assessed after approximately 1 and 24 hours of continuous exposure, read-out: EC50 (sea lice inhibition, dead+damaged sea lice)
Description: Mobile stages of sea lice (i.e., pre-adults, adults of Lepeophtheirus salmonis) were exposed to seawater spiked with declining concentrations of a test compound (dissolved in a PEG sea-water mixture). Sea lice inhibition (% of dead+damaged sea lice) was assessed after approximately 1 and 24 hours of continuous exposure in comparison to a negative (solvent) control group.

O=C(NCC(F)(F)F)c1cc(NC(=O)C2C(c3cc(Cl)cc(Cl)c3)C2(Cl)Cl)ccc1Cl (racemic) [Compound 1500]
inhibition at 0.01 µM [1]: ≥ 80%

N#CC1(NC(=O)c2cc(NC(=O)C3C(c4ccc(Cl)c(Cl)c4)C3(Cl)Cl)ccc2Cl)CC1 (racemic) [Compound 1501]
inhibition at 0.01 µM [1]: ≥ 80%

CC(C)CNC(=O)c1cc(NC(=O)C2C(c3cc(Cl)cc(Cl)c3)C2(Cl)Cl)ccc1Cl (racemic) [Compound 1502]
inhibition at 0.01 µM [1]: 100%

O=C(NC1CC(F)(F)C1)c1cc(NC(=O)C2C(c3cccc(C(F)(F)F)c3)C2(Cl)Cl)ccc1Cl (racemic) [Compound 1508]
inhibition at 0.01 µM [1]: 100%
EC50 [2]: 1 to 10 nM

CCNC(=O)c1cc(NC(=O)C2C(c3cc(Cl)cc(Cl)c3)C2(Cl)Cl)ccc1Cl (racemic) [Compound 1509]
inhibition at 0.01 µM [1]: 100%

O=C(NC1COC1)c1cc(NC(=O)C2C(c3cc(Cl)cc(Cl)c3)C2(Cl)Cl)ccc1Cl (racemic) [Compound 1510]
inhibition at 0.01 µM [1]: 100%

Cc1cc(Cl)cc(C2C(C(=O)Nc3ccc(Cl)c(C(=O)NC4CC(F)(F)C4)c3)C2(Cl)Cl)c1 (racemic) [Compound 1513]
inhibition at 0.01 µM [1]: 100%

Cc1cc(C2C(C(=O)Nc3ccc(Cl)c(C(=O)NC4(C#N)CC4)c3)C2(Cl)Cl)cc(Cl)c1Cl (racemic) [Compound 1514]
inhibition at 0.1 µM [1]: 100%
EC50 [2]: 10 to 25 nM

N#CC1(NC(=O)c2cc(NC(=O)C3C(c4cc(Cl)cc(Cl)c4)C3(Cl)Cl)ccc2Cl)CC1 (racemic) [Compound 1515]
inhibition at 0.01 µM [1]: 100%

CC1(NC(=O)c2cc(NC(=O)C3C(c4cc(Cl)cc(Cl)c4)C3(Cl)Cl)ccc2Cl)CC1 (racemic) [Compound 1523]
inhibition at 0.001 µM ([1]; test concentration 1 nM): 80%

O=C(NC1CCOC1=O)c1cc(NC(=O)C2C(c3cc(Cl)cc(Cl)c3)C2(Cl)Cl)ccc1Cl (racemic) [Compound 1526]
inhibition at 0.01 µM [1]: 100%

N#Cc1cc(Cl)cc(C2C(C(=O)Nc3ccc(Cl)c(C(=O)NC4(C#N)CC4)c3)C2(Cl)Cl)c1 (racemic) [Compound 1532]
inhibition at 0.1 µM [1]: 100%
EC50 [2]: 10 to 25 nM

O=C(NCCF)c1cc(NC(=O)C2C(c3ccc(F)c(Cl)c3)C2(Cl)Cl)ccc1Cl (racemic) [Compound 1536]
inhibition at 10 pM [1]: 100%

O=C(NCC(F)(F)F)c1cc(NC(=O)C2C(c3ccc(F)c(Cl)c3)C2(Cl)Cl)ccc1Cl (racemic) [Compound 1537]
inhibition at 0.01 µM [1]: 100%

O=C(NCCC(F)(F)F)c1cc(NC(=O)C2C(c3ccc(F)c(Cl)c3)C2(Cl)Cl)ccc1Cl (racemic) [Compound 1538]
inhibition at 10 pM [1]: 100%

O=C(NCCF)c1cc(NC(=O)C2C(c3cc(Cl)cc(Cl)c3)C2(Cl)Cl)cc(Cl)c1Cl (racemic) [Compound 1539]
inhibition at 0.01 µM [1]: 100%

N#CC1(NC(=O)c2cc(NC(=O)C3C(c4cc(F)c(Br)c(F)c4)C3(Cl)Cl)ccc2Cl)CC1 (racemic) [Compound 1544]
inhibition at 0.1 µM [1]: 100%

N#CC1(NC(=O)c2cc(NC(=O)C3C(c4cc(Cl)cc(C(F)F)c4)C3(Cl)Cl)ccc2Cl)CC1 (racemic) [Compound 1545]
inhibition at 0.1 µM [1]: 100%
EC50 [2]: 10 to 25 nM

N#CC1(NC(=O)c2cc(NC(=O)C3C(c4ccc(Cl)c(C(F)F)c4)C3(Cl)Cl)ccc2Cl)CC1 (racemic) [Compound 1546]
inhibition at 0.1 µM [1]: 100%
EC50 [2]: 10 to 25 nM

N#CC1(NC(=O)c2cc(NC(=O)C3C(c4cc(F)cc(C(F)F)c4)C3(Cl)Cl)ccc2Cl)CC1 (racemic) [Compound 1547]
inhibition at 0.1 µM [1]: 100%
EC50 [2]: 1 to 10 nM

N#CC1(NC(=O)c2cc(NC(=O)C3C(c4ccc(C(F)F)c(Cl)c4)C3(Cl)Cl)ccc2Cl)CC1 (racemic) [Compound 1548]
EC50 [2]: 10 to 25 nM

N#CC1(NC(=O)c2cc(NC(=O)C3C(c4cccc(C(F)F)c4)C3(Cl)Cl)ccc2Cl)CC1 (racemic) [Compound 1549]
inhibition at 0.1 µM [1]: 100%

O=C(NCC(F)(F)F)c1cc(NC(=O)C2C(c3cc(F)c(F)c(F)c3)C2(Cl)Cl)ccc1Cl (racemic) [Compound 1551]
inhibition at 10 pM [1]: 100%

O=C(NCCC(F)(F)F)c1cc(NC(=O)C2C(c3cc(Cl)cc(Cl)c3)C2(Cl)Cl)cc(Cl)c1Cl (racemic) [Compound 1552]
inhibition at 0.01 µM [1]: ≥ 80%

CCNC(=O)c1cc(NC(=O)C2C(c3cc(Cl)cc(Cl)c3)C2(Cl)Cl)cc(Cl)c1Cl (racemic) [Compound 1553]
inhibition at 0.01 µM [1]: 100%

O=C(NCC(F)(F)F)c1cc(NC(=O)C2C(c3ccc(F)c(Cl)c3)C2(Cl)Cl)cc(F)c1F (racemic) [Compound 1554]
inhibition at 0.01 µM [1]: ≥ 80%
